Test results from patent publication US7166296B2, “Pharmaceutical formulations and ligands for use therein; mimetics for UEA-1” (Sarlan, Ltd., priority 2001, dated 2007).
Converted amounts (≈) assume the structure as drawn.

Experiments:
[1] = test system: UEA-1 binding sites on Caco-2 cell membrane preparations; assay: Single tier competition assay: inhibition of biotinylated UEA-1 binding, compound and biotinylated UEA-1 incubated together; design: species or system human; conditions: for Av % Inhibition / Avg % Inhibtion: Single Tier Assay; for Av % Inhibition: library MSI 22; for Avg % Inhibtion: library MSI 26
Description: (§1) The epithelial cell binding ability of compounds and mixtures obtained from synthetic combinatorial libraries was determined by competition assays. These assays were set up to measure the inhibition of binding of biotinylated UEA-1 to membrane preparations of the epithelial cell line Caco-2 (colon carcinoma cells-2), by compounds and mixtures of the combinatorial libraries. This cell line is a conventional model for epithelial cells.
(§2) Two competition inhibition assays were used in this case, namely single tier and two tier assays. These assays differed from each other in that in the single tier assay, the mixtures/compounds and the biotinylated UEA-1 were incubated together with the Caco-2 cell membrane preparations, while in case of the two-tier assay, the mixture/compounds were allowed to incubate alone with the cell membranes in the absence of biotinylated UEA-1, which was added in the next step. Addition of the extra step in the two-tier assay was to ensure that the compounds inhibiting the binding of biotinylated UEA-1 to the Caco-2 cell membranes were doing so by themselves binding to surface receptors on the Caco-2 cells and not to the biotinylated UEA-1. Each assay will be described in detail.
(§3) • 1. Confluent Caco-2 cell monolayers (grown in 75 cm^2 flasks for up to 1 week at 37° C. and 5% CO2) were washed twice in Dulbecco's PBS (DPBS). • 2. Cell monolayers were treated with 10 mM EDTA-DPBS for 5–10 min at 37° C. and cells were harvested by centrifugation at 1000 rpm for 5 min. • 3. Cells were washed 3 times in DPBS. • 4. […] The cells were homogenised for 30 sec. • 6. The homogenates were centrifuged in hard walled tubes at 40,000 rpm for 45 min at 4° C. • 7. […] The supernatant was removed and stored on ice. The procedure was repeated adding the second supernatant to the first. • 8. The protein concentration was determined using e.g. a Bio-Rad protein assay. • 9. All fractions were stored at −80° C. prior to use. Single Tier Assays: • 1. 96-well microtiter plates were coated with membrane preparations of Caco-2 cells either by allowing them to incubate on the plates for 2½ hours at room temperature or by incubating them overnight at 4° C. 100 μl of 10 μg/ml (in 0.05 M carbonate buffer, pH 9.6) of membrane preparation was added to each well. • 2. The plates were flicked out, patted dry and blocked with bovine serum albumin (BSA)/DPBS (200 μl/well) for 1 to 4 hours at room temperature after which they were washed three times in water. • 3. […] Control wells were also set up in which the Caco-2 cell membrane preparations were incubated with unconjugated UEA-1. […] Following overnight incubation the plates were washed thoroughly (3–6 times). The plates were flicked out, patted dry and biotinylated UEA-1 was detected with commercial Streptavidin conjugated to horseradish peroxidase (HRP) (CalBiochem). […] The plates were left to incubate for an hour at room temperature. • 6. The plates were then washed 3–6 times and the biotin-streptavidin binding was detected by adding an HRP substrate OPD (orthophenyl diamine) to each well. 100 μl/well of this substrate at a final concentration of 1.6 mg/ml was added to each well. Before adding to the wells, this substrate was activated by addition of 50 μl of 3% H2O2 per plate and the reaction was allowed to develop in the dark. • 7. The reaction was stopped by adding 50 μl of 4 N H2SO4 to each well after approximately 5–10 minutes or when sufficient colour had developed. The OD490 (absorbance at 490 nm) of each well was measured using a conventional 96 well plate reading spectrophotometer. Two Tier Assays: • 1. 96 well plates were coated with Caco-2 cell membrane preparations in the same manner as described in the single tier assay. • 2. […] 100 μl at these final concentrations were added to each well. • 4. The plates were then left to incubate overnight, a step that would allow the mixtures and compounds to interact with the Caco-2 cell membranes without the presence of the competitor (biotinylated UEA-1) itself. • 5. […]

[2] = test system: UEA-1 binding sites on Caco-2 cell membrane preparations; assay: Two tier competition assay: compound incubated alone with membranes, biotinylated UEA-1 added in next step; design: species or system human; conditions: for Av % Inhibition / Avg % Inhibition / Avg % Inhib: Two Tier Assay; for Av % Inhibition: library MSI 22; for Avg % Inhibition: library MSI 26; for Avg % Inhib: library TP1012
Description: as §1, §2, §3

[3] = library MSI 27, read-out: Single Tier Assay IC50
[4] = library MSI 27, read-out: Two Tier Assay IC50

SMILES | IC50 [1, 3] [µM] | IC50 [2, 4] [µM] | Avg % Inhib ([2]; 50 μg/ml) [%] | Avg % Inhib ([2]; 250 μg/ml) [%] | also measured
CNC[C@@H](Cc1ccc(OC(=O)OCc2ccccc2Br)cc1)N(C)C[C@H](CC1CCCCC1)NC(=O)c1cc(OC)c(OC)c(OC)c1 | – | – | – | – | Av % Inhibition ([1]; 62.5 μg/ml): −0%; Av % Inhibition ([1]; 250 μg/ml): −11.7%; Av % Inhibition ([2]; 62.5 μg/ml): 39.7%; Av % Inhibition ([2]; 250 μg/ml): 58.9%
CCOc1ccc(C[C@H](CNC)N(C)C[C@H](CC2CCCCC2)NC(=O)c2cc(OC)c(OC)c(OC)c2)cc1 | – | – | – | – | Av % Inhibition ([1]; 62.5 μg/ml): −9%; Av % Inhibition ([1]; 250 μg/ml): −55.7%; Av % Inhibition ([2]; 62.5 μg/ml): 49.8%; Av % Inhibition ([2]; 250 μg/ml): 43.8%
NC(=O)c1cc(O)c(O)c(O)c1 [3,4,5-trihydroxybenzamide, reference compound] | – | – | – | – | Avg % Inhibtion ([1]; 62.5 μg/ml): 41.7%; Avg % Inhibtion ([1]; 250 μg/ml): 21%; Avg % Inhibition ([2]; 62.5 μg/ml): 10.7%; Avg % Inhibition ([2]; 250 μg/ml): 41.4%
NC(=O)c1cc(O)cc(O)c1 [3,5-dihydroxybenzamide, reference compound] | – | – | – | – | Avg % Inhibtion ([1]; 62.5 μg/ml): −1%; Avg % Inhibtion ([1]; 250 μg/ml): 2.4%; Avg % Inhibition ([2]; 62.5 μg/ml): −7%; Avg % Inhibition ([2]; 250 μg/ml): −2%
O=C(O)c1cc(O)cc(O)c1 [3,5-dihydroxybenzoic Acid, reference compound] | – | – | – | – | Avg % Inhibtion ([1]; 62.5 μg/ml): 0%; Avg % Inhibtion ([1]; 250 μg/ml): 1.1%; Avg % Inhibition ([2]; 62.5 μg/ml): −5%; Avg % Inhibition ([2]; 250 μg/ml): −7%
COc1cc(C(=O)NCCCCC(NC(=O)c2cc(OC)c(O)c(OC)c2)C(N)=O)cc(OC)c1O (centres unmarked) [Cpd 1] | 495 | 495 | – | – | –
COc1ccc(C(=O)NCCCCC(NC(=O)c2ccc(OC)c(OC)c2)C(N)=O)cc1OC (centres unmarked) [Cpd 2] | 271 | 204 | – | – | Single Tier Assay IC50 ([1]; library MSI 27): 128.20 mg/L; Two Tier Assay IC50 ([2]; library MSI 27): 96.44 mg/L
CCOc1cc(C(=O)NCCCCC(NC(=O)c2cc(OCC)c(OCC)c(OCC)c2)C(N)=O)cc(OCC)c1OCC (centres unmarked) [Cpd 3] | 405 | 405 | – | – | –
COc1cc(C(=O)NCCCCC(NC(=O)c2cc(OC)c(OC)c(OC)c2)C(N)=O)cc(OC)c1OC (centres unmarked) [Cpd 4] | 469 | 469 | – | – | –
NC(=O)C(CCCCNC(=O)c1cc(O)c(O)c(O)c1)NC(=O)c1cc(O)c(O)c(O)c1 (centres unmarked) [Cpd 6] | 42.2 | 28.9 | – | – | IC 50 (ug/ml) 1st tier ([1]; Table 8, galloyl constructs): 11 µg/mL (≈ 24.5 µM); IC50 ([1]; Table 8, galloyl constructs, read-out: IC 50 (uM) 1st tier (converted)): 24 µM; Single Tier Assay IC50 ([1]; library MSI 27): 18.97 mg/L; IC 50 (ug/ml) 2nd tier ([2]; Table 8, galloyl constructs): 8 µg/mL (≈ 17.8 µM); IC50 ([2]; Table 8, galloyl constructs, read-out: IC 50 (uM) 2nd tier): 17 µM; Two Tier Assay IC50 ([2]; library MSI 27): 12.97 mg/L
NC(=O)C(CCCCNC(=O)c1ccc(O)cc1)NC(=O)c1ccc(O)cc1 (centres unmarked) [Cpd 7] | 649 | 649 | – | – | –
COc1cc(C(=O)NCCCCC(NC(C)=O)C(N)=O)cc(OC)c1O (centres unmarked) [Cpd 9] | 340 | 275 | – | – | Single Tier Assay IC50 ([1]; library MSI 27): 125.00 mg/L; Two Tier Assay IC50 ([2]; library MSI 27): 101.20 mg/L
CCOc1cc(C(=O)NCCCCC(NC(C)=O)C(N)=O)cc(OCC)c1OCC (centres unmarked) [Cpd 11] | 590 | 590 | – | – | –
COc1cc(C(=O)NCCCCC(NC(C)=O)C(N)=O)cc(OC)c1OC (centres unmarked) [Cpd 12] | 655 | 655 | – | – | –
CCCCC(CNC)N(C)CC(CC1CCCCC1)NC(=O)c1cc(O)c(O)c(O)c1 (centres unmarked) [compound 86] | – | – | 61.61 | 76.23 | –
CCCC[C@H](CNC)N(C)C[C@H](CC1CCCCC1)NC(=O)c1cc(O)c(O)c(O)c1 [compound 90] | – | – | 53.66 | 69.94 | –
CCCC[C@@H](CNC)N(C)C[C@@H](CC1CCCCC1)NC(=O)c1cc(O)c(O)c(O)c1 [compound 92] | – | – | 54.8899 | 67.7 | –
CCCC[C@@H](CNC)N(C)C[C@H](CC1CCCCC1)NC(=O)c1cc(O)c(O)c(O)c1 [compound 96] | – | – | 42.93 | 65.78 | –
CNC[C@H](CC(C)C)N(C)C[C@H](Cc1ccccc1)NC(=O)c1cc(O)c(O)c(O)c1 [compound 125] | – | – | 61.02 | 77.78 | –
CNC[C@H](Cc1ccc(F)cc1)N(C)C[C@H](Cc1ccc(F)cc1)NC(=O)Cc1ccc(Cl)c(Cl)c1 [compound 141] | – | – | 41.43 | 72.64 | –
CNC[C@H](Cc1ccc(F)cc1)N(C)C[C@H](Cc1ccc(F)cc1)NC(=O)Cc1cccc(C(F)(F)F)c1 [compound 144] | – | – | 42.26 | 66.71 | –
